# Patent publication US7297481B2, “Detection of DNA damage” (ESA Biosciences, Inc., priority 2000, dated 2007)
# Key:
# [1] = Urine 8OH2′dG levels in individuals exposed to chemicals; format: in vivo, human; details: individuals exposed to the substance
# [2] = Effect of simple antioxidants on levels of 8OH2′dG; format: in vivo
# [3] = Comparison of CSF, plasma, urine, saliva and sweat levels of 8OH2′dG; format: in vivo, human
# Source text: (§1) 1. Dialysis studies of 8OH2′dG in extracellular matrix with probes placed in brain and muscle of rat and mouse to measure the rate of production and excretion compared with the free levels inside the cellular material confirm that excretion from the cells is rapid. Similarly, comparison of CSF, Plasma and urinary levels of ca 1:10:2000 in ca 100 ALS and control subjects confirm that the rate of clearance from the body is high.
# [4] = Dialysis studies of 8OH2′dG in extracellular matrix, probes in brain and muscle; format: in vivo; details: extracellular matrix vs free levels inside cellular material, brain and muscle of rat and mouse
# Source text: as §1
# C. Elegans = test: 8OH2′dG production (DNA damage rate) in C. Elegans culture; format: in vivo
# Source text: 2. Relevant to the use of DNA damage rate measurements to cancer diagnosis I have observed that in C. Elegans culture there is a burst of 8OH2′dG production during the stage of rapid replication of the gonadal cells. In similar experiments I observed that a toxin (3 nitro propionic acid, 3NP) increased the rate of DNA damage during replication.
# 4. […] In rapid cell replication in C. Elegans, in 3NP insulted C.
compound,measurement,setting,value
Nc1ccccc1 [aniline],Urine levels of 8OH2′dG,[1],significantly increased
Tocopherol,effect on the levels of 8OH2′dG,[2],no effect
"Nc1nc2c(nc(O)n2[C@H]2C[C@H](O)[C@@H](CO)O2)c(=O)[nH]1 [8OH2′dG, 8 hydroxy 2′ deoxyguanosine]",rate of clearance from the body,"[3]; CSF, plasma and urinary levels ca 1:10:2000 in ca 100 ALS and control subjects",high
same,mode of removal,"[3]; saliva or sweat vs. urine levels, plasma of kidney dialysis patients",urinary excretion is the primary mode of removal
same,excretion from the cells,[4],rapid
"O=C(O)CC[N+](=O)[O-] [3NP, 3 nitro propionic acid]",rate of damage after the toxin was removed,C. Elegans; after exposure,still maintained at a higher level
same,rate of DNA damage during replication,C. Elegans; toxin exposure,increased
[As] [arsenic],Urine levels of 8OH2′dG,[1],significantly increased
Cc1ccccc1N [o-toluidine],Urine levels of 8OH2′dG,[1],significantly increased
O=C1O[C@H]([C@@H](O)CO)C(O)=C1O [Ascorbate],effect on the levels of 8OH2′dG,[2],no effect
